Assay [1] deals with MDA-MB-231 human breast cancer xenograft. Kind of assay: MDA-MB-231 xenograft, intraperitoneal 160 mg/kg (Example 81). To be noted: 160 mg/kg intraperitoneally, q3d×10, lipiodol vehicle. Type of assay: in vivo, mice. Here is the method: Athymic female nude mice (CRL:NU/NU-nuBR) were injected subcutaneously in the flank with MDA-MB-231 human breast cancer cells (8×10^6 cells/mouse). Prior to injection, MDA-MB-231 cells were cultured in DMEM (Invitrogen #11965-092) supplemented with 10% (v/v) heat inactivated fetal bovine serum (FBS), 1% Hepes buffer solution (Invitrogen #15630-080) and 1% Penicillin/Streptomycin (Invitrogen #15140-122) at 37° C. in 5% CO2. Tumors were allowed to grow to approximately 50 mm^3 in size. Animals were randomized into three groups of five animals per group. At day ten post injection, mice with established tumors were treated intraperitoneally with (±)-cis-3-(5,6-dihydro-4H-pyrrolo[3,2,1-ij]quinolin-1yl)-4(1H-indol-3-yl) pyrrolidine-2,5-dione (160 mg/kg), (±)-trans-3-(5,6-dihydro-4H-pyrrolo[3,2,1-ij]quinolin-1-yl)-4(1H-indol-3-yl)pyrrolidine-2,5-dione (160 mg/kg) administered in iodinated poppy seed oil (lipiodol) as the vehicle at 10 mg/ml, or vehicle control. Drug or vehicle was administered every three days for a total of ten doses (q3d×10). Tumor size was evaluated periodically during the study. For each subject, tumor volume was calculated using the formula (L×W^2)/2 where L and W were the length and width of the tumor, respectively. The arithmetic mean tumor volume was calculated for each treatment group+/−standard error of the mean (SEM). […]

Assay [2] relates to MDA-MB-231 cells or Paca-2 cells. Kind of assay: Cell survival in six-well plates, Wright-Giemsa stain (Example 77). The format is cell-based. To be noted: Homo sapiens; 0.1-2 μM, cultures observed 10-15 days; cell line of the IC50 not stated. Here is the method:
Exponentially growing MDA-MB-231 cells or Paca-2 cells were seeded at 1,000 cells per well in six-well plates and allowed to attach for 24 hours. MDA-MB-231 and Paca-2 cells were cultured in DMEM supplemented with 10% (v/v) fetal calf serum (FCS) and 5 ml Penicillin/Streptomycin at 37° C. in 5% CO2. MDA-MB-231 and Paca-2 were established estrogen receptor negative human breast cancer and pancreatic carcinoma cell lines, respectively. (±)-cis-3-(5,6-dihydro-4H-pyrrolo[3,2,1-ij]quinolin-1yl)-4(1H-indol-3-yl)pyrrolidine-2,5-dione or (±)-trans-3-(5,6-dihydro-4H-pyrrolo[3,2,1-ij]quinolin-1-yl)-4(1H-indol-3-yl)pyrrolidine-2,5-dione were each dissolved at a concentration of 10 mM in DMSO, and separately added to cells at a concentration of 0.1, 0.25, 0.5, 1 or 2 μM. Control plates received DMSO alone, at the same percentage of total culture volume as that administered in conjunction with the highest concentration of drug. Cell cultures were observed daily for 10-15 days, then fixed and stained with modified Wright-Giemsa stain (Sigma). Treatment with (±)-cis-3-(5,6-dihydro-4H-pyrrolo [3,2,1-ij]quinolin-1yl)-4(1H-indol-3-yl)pyrrolidine-2,5-dione or (±)-trans-3-(5,6-dihydro-4H-pyrrolo[3,2,1-ij]quinolin-1-yl)-4(1H-indol-3-yl)pyrrolidine-2,5-dione results in cell death of MDA-MB-231 cells or Paca-2 cells. See, e.g., FIG. 2.

Assay [3] concerns MDA-MB-231 human breast cancer xenograft. Description: MDA-MB-231 xenograft, intraperitoneal 80 mg/kg (Example 82). The format is in vivo, mice. To be noted: 80 mg/kg intraperitoneally, 5 days on/2 off, four cycles, DMA/PEG 400. Here is the method:
Athymic female nude mice (CRL:NU/NU-nuBR) were injected subcutaneously in the flank with MDA-MB-231 human breast cancer cells (8×10^6 cells/mouse). Prior to injection, MDA-MB-231 cells were cultured in DMEM (Invitrogen #11965-092) supplemented with 10% (v/v) heat inactivated fetal bovine serum (FBS), 1% Hepes buffer solution (Invitrogen #15630-080) and 1% Penicillin/Streptomycin (Invitrogen #15140-122) at 37° C. in 5% CO2. Tumors were allowed to grow to approximately 50 mm^3 in size. Animals were randomized into three groups of eight animals per group. At day four post injection, mice with established tumors were treated intraperitoneally with (±)-Cis-3-(5,6-dihydro-4H-pyrrolo[3,2,1-ij]quinolin-1yl)-4(1H-indol-3-yl)pyrrolidine-2,5-dione (80 mg/kg), (±)-Trans-3-(5,6-dihydro-4H-pyrrolo[3,2,1-ij]quinolin-1-yl)-4(1H-indol-3-yl)pyrrolidine-2,5-dione (80 mg/kg) administered in DMA/PEG 400 (1:4 v/v) as the vehicle at 50 mg/ml, or vehicle control intraperitoneally. […] Tumor size was evaluated periodically during the study. For each subject, tumor volume was calculated using the formula (L×W^2)/2 where L and W were the length and width of the tumor, respectively. The arithmetic mean tumor volume was calculated for each treatment group+/−standard error of the mean (SEM). […]

Assay [4] deals with Recombinant Protein Kinase C. Kind of assay: Protein Kinase C kinase reaction, Histone H1, autoradiography (Example 79). The format is biochemical. To be noted: 0.05, 0.5, or 10 μM, 15 minutes at room temperature. Here is the method:
Recombinant Protein Kinase C (Calbiochem) (100 ng) was incubated with (±)-cis-3-(5,6-dihydro-4H-pyrrolo[3,2,1-ij]quinolin-1yl)-4(1H-indol-3-yl)pyrrolidine-2,5-dione or (±)-trans-3-(5,6-dihydro-4H-pyrrolo[3,2,1-ij]quinolin-1-yl)-4(1H-indol-3-yl)pyrrolidine-2,5-dione at 0.05, 0.5, or 10 μM for 15 minutes at room temperature. Subsequently, a radioactive labeling mix in kinase buffer (20 mM Tris-HCl pH 7.5, 10 mM MgCl2) containing 20 μM ATP, 0.2 μCi/μl γ^32P-ATP, 0.2 μg/μl Histone H1 (Upstate) was added to each sample. The kinase reaction was carried out for 5 minutes at room temperature. Reaction products were analyzed by 12% SDS-PAGE and autoradiography.

A further assay deals with MDA-MB-231. Description: Cell viability MTS assay. Type of assay: cell-based, human. Summed up: (§1)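 Adherent lines grown in DMEM with 15% heat-inactivated FBS at 37° C., 5% CO2; seeded, left 16-24 hours, then exposed to serially diluted compound (0.33% DMSO final) for 72 hours. MTS/PMS added for 4 hours, SDS stop, A490 read; IC50 is 50% fewer viable cells versus DMSO controls.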

For another assay, the system named is HT29. Kind of assay: Cell viability MTS assay. Type of assay: cell-based, human. The gist of the method:
as §1
(Tetrazolium dyes change colour on reduction, which living cells bring about.)

For a further assay, the system named is MDA-MB-231 cells. Description: Colony counting, surviving fraction (Example 78). The format is cell-based, human. To be noted: two days incubation, colonies counted two weeks later; read-out: IC50 (surviving fraction equaled 50). The method, then: MDA-MB-231 cells (ATCC# HTB-26), grown in DMEM plus 15% heat inactivated fetal bovine serum plus 10 mM HEPES pH 7.5, were plated in 60 mm plates (2×10^5 cells per plate). After two days candidate compounds in DMSO at various concentrations were diluted in media and added to individual plates such that the final DMSO concentration in the cell culture media was 0.1%. After two days incubation the culture was trypsinized, cells were washed with media, counted using a hemocytometer and 500 cells, including cell bodies, were plated in […] in media. Two weeks later the media was removed and the cell colonies were fixed with methanol for 10 minutes, stained with 1% crystal violet 10 minutes, washed with water and air dried. Cell colonies were visually counted when there were greater then 50 cells present per colony. Plating efficiency was defined as the average number of colonies formed divided by 500. The surviving fraction was defined as the plating efficiency of a candidate compound divided by the plating efficiency of DMSO multiplied by 100. For candidate compound titrations, the IC50 concentration was determined by fitting the equation y=AeBx to the data points and extrapolating the concentration where surviving fraction equaled 50. […]

The next assay has as its system PC-3. Description: Cell viability MTS assay. Type of assay: cell-based, human. To be noted: 72 hours with compound. Summed up: as §1
The subject of another assay is MCF7. Description: Cell viability MTS assay. Type of assay: cell-based, human. To be noted: 72 hours with compound. Summed up:
as §1

A further assay deals with K562. Description: Cell viability MTS assay. The format is cell-based, human. To be noted: 72 hours with compound. Summed up: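 IC50 values reflect 50% loss of viable cells, measured as MTS absorbance at 490 nm. Compound was present for 72 hours, with a 4-hour MTS/PMS step ended by SDS.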
The subject of the next assay is SK-MEL-28. Kind of assay: Cell viability MTS assay. Type of assay: cell-based, human. To be noted: 72 hours with compound. Summed up:
as §1

The test system of another assay is NCI-H82. Description: Cell viability MTS assay. The format is cell-based, human. To be noted: 72 hours with compound. The gist of the method: as §1
For another assay, the system named is A549. Kind of assay: Cell viability MTS assay. The format is cell-based, human. To be noted: 72 hours with compound. Summed up: as §1
The subject of a further assay is SKOV-3. Description: Cell viability MTS assay. The format is cell-based, human. To be noted: 72 hours with compound. The gist of the method: as §1
Another assay deals with NCI-H69. Description: Cell viability MTS assay. To be noted: 72 hours with compound. The format is cell-based, human. Summed up:
as §1

The subject of the next assay is NCI-H446. Description: Cell viability MTS assay. To be noted: 72 hours with compound. Type of assay: cell-based, human. Summed up: as §1
For another assay, the system named is HCT-116. Kind of assay: Cell viability MTS assay. Type of assay: cell-based, human. To be noted: 72 hours with compound. The gist of the method:
as §1

We go through two molecules from patent publication US7713969B2, “Compositions and methods for treatment of cancer” (ArQule, Inc., priority 2005, dated 2010).

A value given as a limit tells only on which side of the number the result lay.

For orientation: IC50 means the concentration needed to halve the response being measured. `O=C1NC(=O)[C@@H](c2cn3c4c(cccc24)CCC3)[C@H]1c1c[nH]c2ccccc12` (racemic) [(±)-Cis-3-(5,6-dihydro-4H-pyrrolo[3,2,1-ij]quinolin-1-yl)-4(1H-indol-3-yl)pyrrolidine-2,5-dione]: the “reduction of normalized mean tumor volume compared to vehicle treated control” value in assay [1] worked out at 80.5%. Moreover, the IC50 in [2] came out at 500 nM; with MDA-MB-231 (Homo sapiens, MDA-MB-231, 72 hours with compound), 4.04 µM; with HT29 (Homo sapiens, HT-29, 72 hours with compound) it was 2.89 µM. The “reduction of mean tumor volume compared to vehicle treated control” value in [3] was determined as 73.4%. Moreover, in [4], the “Protein Kinase C kinase activity in comparison to carrier alone” value is listed as “did not reduce kinase activity”.
As to `O=C1NC(=O)[C@@H](c2cn3c4c(cccc24)CCC3)[C@@H]1c1c[nH]c2ccccc12` [(+)-3(S),4(R)-3-(5,6-dihydro-4H-pyrrolo[3,2,1-ij]quinolin-1-yl)-4(1H-indol-3-yl)pyrrolidine-2,5-dione], the IC50 is 4.1 µM in the assay with MDA-MB-231 cells; 18.7 µM in the assay with PC-3; more than 100 µM in the assay on MCF7; 4.52 µM in the assay on K562; 25.5 µM in the assay on SK-MEL-28; 9.83 µM in the assay on NCI-H82. In addition, the IC50 is 26.8 µM in the assay with MDA-MB-231 (72 hours with compound); 27.9 µM in the assay on A549; 30.1 µM in the assay on HT29 (72 hours with compound); 4.45 µM in the assay on SKOV-3; 10.5 µM in the assay with NCI-H69; 8.55 µM with NCI-H446. In addition, in the assay with HCT-116, the IC50 was 14.4 µM.
